# Source: the supplement of paper PMC8253809
# Tests used:
# [1] = tested on: DIPGX9 (diffuse intrinsic pontine glioma line); experiment: area under dose-response curve of % growth inhibition (log2 RLU vs DMSO / staurosporine), 1e-11 to 1e-4 M (% x log10 M); higher = more growth inhibition
# In short: (§1)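 Patient-derived pHGG/DIPG cell lines and astrocytes, cultured on 384-well plates with a 1% Geltrex coating, were given a 10-point threefold dilution series (mean top concentration 35 μM) in triplicate for 7 days (iAstro 3 days) at 37 °C, 5% CO2. CellTiter-Glo signal, log2-transformed and normalised per plate to % activity against solvent and positive controls, was fitted with a log-logistic curve or, where the sigmoid fit failed, a smoothing spline. Area under the curve was then computed by the trapezoid rule.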
# [2] = tested on: DIPGX29 (H3.3 K27M diffuse intrinsic pontine glioma line); experiment: as above
# In short: as §1
# [3] = tested on: SUDIPGXIX (diffuse intrinsic pontine glioma line); experiment: as above
# In short: as §1
# [4] = tested on: HGGX2 (paediatric high-grade glioma line); experiment: as above
# In short: as §1
# [5] = tested on: iAstro (astrocyte control); experiment: as above
# In short: as §1
# [6] = tested on: HGGX39 (paediatric high-grade glioma line); experiment: as above
# In short: as §1
# [7] = tested on: HABS (astrocyte control); experiment: as above
# In short: as §1
# [8] = tested on: SUDIPGVI (diffuse intrinsic pontine glioma line); experiment: as above
# In short: as §1
# [9] = tested on: DIPGX37 (H3.3 K27M diffuse intrinsic pontine glioma line); experiment: as above
# In short: as §1
# [10] = tested on: DIPGX7 (H3.3 K27M diffuse intrinsic pontine glioma line); experiment: as above
# In short: as §1
# [11] = tested on: SUDIPGXIII (diffuse intrinsic pontine glioma line); experiment: as above
# In short: as §1
# [12] = tested on: SUDIPGXXI (diffuse intrinsic pontine glioma line); experiment: as above
# In short: as §1
# [13] = tested on: SUDIPGXVII (diffuse intrinsic pontine glioma line); experiment: as above
# In short: as §1
# [14] = tested on: SUDIPGIV (diffuse intrinsic pontine glioma line); experiment: as above
# In short: as §1
# [15] = tested on: HGGX42 (H3.3 G34R paediatric high-grade glioma line); experiment: as above
# In short: as §1
# [16] = tested on: HGGX6 (H3.3 G34R paediatric high-grade glioma line); experiment: as above
# In short: as §1
# [17] = tested on: DIPGX9; experiment: maximal growth inhibition (yFin) relative to DMSO / staurosporine; higher = more efficacious
# In short: (§2)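 Viability readout was CellTiter-Glo luminescence, log2-transformed, normalised per plate to % activity between negative (solvent) and positive control wells, then pooled. This followed a 7-day exposure (3 days for iAstro) at 37 °C, 5% CO2 to a 10-point threefold dilution series (mean top concentration 35 μM), pin-tool delivered in triplicate to patient-derived pHGG/DIPG cell lines and astrocyte controls on 1% Geltrex-coated 384-well plates. Three- and four-parameter log-logistic fits were compared, and the one with the lowest AICc supplied EC50 and maximal response (yFin).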
# [18] = tested on: DIPGX29; experiment: as above
# In short: as §2
# [19] = tested on: SUDIPGXIX; experiment: as above
# In short: as §2
# [20] = tested on: HGGX2; experiment: as above
# In short: as §2
# [21] = tested on: iAstro; experiment: as above
# In short: as §2
# [22] = tested on: HGGX39; experiment: as above
# In short: as §2
# [23] = tested on: HABS; experiment: as above
# In short: as §2
# [24] = tested on: SUDIPGVI; experiment: as above
# In short: as §2
# [25] = tested on: DIPGX37; experiment: as above
# In short: as §2
# [26] = tested on: SUDIPGXXI; experiment: as above
# In short: as §2
# [27] = tested on: SUDIPGIV; experiment: as above
# In short: as §2
# [28] = tested on: DIPGX9; experiment: EC50 (inflection of fitted growth-inhibition curve) (log10 M)
# In short: as §2
# [29] = tested on: DIPGX29; experiment: as above
# In short: as §2
# [30] = tested on: SUDIPGXIX; experiment: as above
# In short: as §2
# [31] = tested on: HGGX2; experiment: as above
# In short: as §2
# [32] = tested on: iAstro; experiment: as above
# In short: as §2
# [33] = tested on: HGGX39; experiment: as above
# In short: as §2
# [34] = tested on: HABS; experiment: as above
# In short: as §2
# [35] = tested on: SUDIPGVI; experiment: as above
# In short: as §2
# [36] = tested on: DIPGX37; experiment: as above
# In short: as §2
# [37] = tested on: SUDIPGXXI; experiment: as above
# In short: as §2
# [38] = tested on: SUDIPGIV; experiment: as above
# In short: as §2
# [39] = tested on: SUDIPGXIII; experiment: maximal growth inhibition (yFin) relative to DMSO / staurosporine; higher = more efficacious
# In short: as §2
# [40] = tested on: SUDIPGXVII; experiment: as above
# In short: as §2
# [41] = tested on: HGGX42; experiment: as above
# In short: as §2
# [42] = tested on: SUDIPGXIII; experiment: EC50 (inflection of fitted growth-inhibition curve) (log10 M)
# In short: as §2
# [43] = tested on: SUDIPGXVII; experiment: as above
# In short: as §2
# [44] = tested on: HGGX42; experiment: as above
# In short: as §2
SMILES,area under dose-response curve [1],area under dose-response curve [2],area under dose-response curve [3],area under dose-response curve [4],area under dose-response curve [5],area under dose-response curve [6],area under dose-response curve [7],area under dose-response curve [8],area under dose-response curve [9],area under dose-response curve [10],area under dose-response curve [11],area under dose-response curve [12],area under dose-response curve [13],area under dose-response curve [14],area under dose-response curve [15],area under dose-response curve [16],maximal growth inhibition [17] [%],maximal growth inhibition [19] [%],maximal growth inhibition [21] [%],maximal growth inhibition [22] [%],also measured
COC(=O)Nc1nc2cc(C(=O)c3ccccc3)ccc2[nH]1 [MEBENDAZOLE],90,53.6,71,93.5,47.3,73.2,80.6,30.4,94.4,20.7,17.5,246,40.1,93.5,38.7,27.4,36.9,31.4,28.1,28.5,maximal growth inhibition [18]: 25.1%; maximal growth inhibition [20]: 47.6%; maximal growth inhibition [23]: 32.9%; maximal growth inhibition [24]: 22.1%; maximal growth inhibition [25]: 36.4%; maximal growth inhibition [26]: 98.3%; maximal growth inhibition [27]: 63.1%; EC50 (log10 M) [28]: -6.44; EC50 (log10 M) [29]: -6.23; EC50 (log10 M) [30]: -6.45; EC50 (log10 M) [31]: -5.91; EC50 (log10 M) [32]: -5.94; EC50 (log10 M) [33]: -6.61; EC50 (log10 M) [34]: -6.45; EC50 (log10 M) [35]: -5.51; EC50 (log10 M) [36]: -6.7; EC50 (log10 M) [37]: -6.53; EC50 (log10 M) [38]: -5.58
CC[C@@]1(O)C(=O)OCc2c1cc1n(c2=O)Cc2cc3c(CN(C)C)c(O)ccc3nc2-1 [TOPOTECAN],287,71,267,121,134,138,204,71.8,150,118,60,351,84.5,317,119,75.7,96.3,98.6,34.6,85.3,maximal growth inhibition [23]: 64.3%; maximal growth inhibition [25]: 103%; maximal growth inhibition [39]: 26%; maximal growth inhibition [26]: 79%; maximal growth inhibition [40]: 39%; maximal growth inhibition [27]: 87.4%; maximal growth inhibition [41]: 37.5%; EC50 (log10 M) [28]: -6.06; EC50 (log10 M) [30]: -5.74; EC50 (log10 M) [32]: -7.87; EC50 (log10 M) [33]: -5.44; EC50 (log10 M) [34]: -6.83; EC50 (log10 M) [36]: -4.78; EC50 (log10 M) [42]: -5.85; EC50 (log10 M) [37]: -8.44; EC50 (log10 M) [43]: -6.09; EC50 (log10 M) [38]: -7.62; EC50 (log10 M) [44]: -7.08
CC(=O)Nc1cccc(-n2c(=O)n(C3CC3)c(=O)c3c(Nc4ccc(I)cc4F)n(C)c(=O)c(C)c32)c1 [TRAMETINIB],334,176,345,96.1,19,74.7,162,62.1,299,29.4,173,358,135,66.9,51.4,47.4,99.2,106,32.2,53.5,maximal growth inhibition [18]: 54.2%; maximal growth inhibition [23]: 78.3%; maximal growth inhibition [25]: 88.3%; maximal growth inhibition [39]: 42.5%; maximal growth inhibition [26]: 91.1%; maximal growth inhibition [40]: 47.3%; maximal growth inhibition [27]: 26.3%; maximal growth inhibition [41]: 46.1%; EC50 (log10 M) [28]: -7.37; EC50 (log10 M) [29]: -7.25; EC50 (log10 M) [30]: -7.25; EC50 (log10 M) [32]: -4.63; EC50 (log10 M) [33]: -5.15; EC50 (log10 M) [34]: -6.03; EC50 (log10 M) [36]: -7.38; EC50 (log10 M) [42]: -7.34; EC50 (log10 M) [37]: -7.93; EC50 (log10 M) [43]: -6.86; EC50 (log10 M) [38]: -6.66; EC50 (log10 M) [44]: -4.9
